PMC11579209, “Population pharmacokinetics and exposure–response relationships of maribavir in transplant recipients with cytomegalovirus infection” (Journal of Pharmacokinetics and Pharmacodynamics, 2024)
Read-outs that look alike come from different tables or passages of the source.

Assays:
[1] = system: Cytochrome P450 (CYP) 1A2; parameters: method as in PMID 12654667, doi:10.1016/j.bbmt.2018.12.600; conditions: formation of VP44469; cited from earlier work
[2] = parameters: species or system human; conditions: in vivo
Experimental: The exposure–response analyses for maribavir were based on data collected from transplant recipients with CMV infections that were refractory to treatment with ganciclovir, valganciclovir, foscarnet, or cidofovir in the phase 3 SOLSTICE study (ClinicalTrials.gov: NCT02931539). SOLSTICE was a multicenter, open-label, active-controlled study in which patients were randomized 2:1 to receive maribavir 400 mg BID or IAT for 8 weeks, with 12 weeks of follow-up. The primary endpoint was confirmed CMV clearance at the end of week 8, and the key secondary endpoint was achievement of CMV clearance and symptom control at the end of week 8, maintained through week 16. TE CMV mutation conferring resistance to maribavir was assessed as an exploratory endpoint. Full details of the SOLSTICE study have been published previously.
Posterior Bayes parameters of the final PopPK model were used to derive rich concentration–time profiles for maribavir. Actual dosing history and factors affecting the PK of maribavir (i.e., body weight and time-varying presence of strong CYP3A4 inhibitors or strong CYP3A4 inducers) were considered in the predictions.
Data set preparation, exploration, visualization of the data and exposure-response analyses were performed using R® (version 4.0.5 for efficacy and resistance analyses; version 4.0.2 for safety analysis) with comprehensive R® archive network (CRAN) and Certara Strategic Consulting (CSC) package. Firth correction on logistic regression was done based on library “logistf”. Logistic regressions with log-linear exposure effect or Emax exposure effect were performed using NONMEM Version VII (version 7.4).
Descriptive statistics were derived for TEAEs, TE serious AEs (SAEs), and TEAEs of special interest during the 8-week treatment phase. Based on the descriptive statistics results, key TEAEs were selected for a formal exposure–response analysis, and exposure parameters of maribavir (AUCday, Cmax.day, Cavg, AUCss, and Cmax.ss) derived from the final PopPK models were merged with retained TEAE. […]

CMV = conditions: SOLSTICE, maribavir 400 mg BID vs IAT, cited from earlier work
[3] = parameters: method as in PMID 38009271; conditions: concurrent rifampin; cited from earlier work
[4] = cited from earlier work
[5] = Population pharmacokinetic (PopPK) model (NONMEM), pooled maribavir plasma concentration–time data from phase 1, 2 and 3 studies; assay type: in vivo, human
Experimental: A PopPK model was developed using non-linear mixed effects modeling (NONMEM) (v7.4.3) with pooled maribavir plasma concentration–time data from 667 participants in nine phase 1 studies (n = 182, single or repeated doses of 100, 200 or 400 mg), two phase 2 studies (NCT01611974, EudraCT 2010-024247-32, 400, 800, and 1200 mg BID), and one phase 3 study (SOLSTICE, NCT02931539, 400 mg BID; phase 2 and 3 combined: n = 485). The final PopPK analysis dataset comprised data from individuals who had received at least one dose of maribavir and had at least one quantifiable post-dose concentration. This model was used to describe the time course of maribavir plasma concentrations in healthy volunteers, participants with hepatic or renal impairment, stable renal transplant patients, and hematopoietic cell transplant (HCT) or solid organ transplant (SOT) recipients with CMV infection, including those with refractory CMV infection.
One- (ADVAN2 TRANS2), two- (ADVAN4 TRANS4), and three (ADVAN12 TRANS4)-compartment models with first-order absorption, an absorption lag time, and linear clearance were initially investigated. The NONMEM control stream for the final model can be found in the Supplementary Methods S1 of the Supplementary Material 1. […] Consequently, the effects of co-administration of strong CYP3A4 inhibitors and strong CYP3A4 inducers were considered for inclusion in the base model. The effect of body weight (scaled to 70 kg) on both clearance and volume terms was also considered for inclusion in the base model.
Structural and variance model parameters were estimated for the base model, and inter-individual variability (IIV) was included on all structural parameters. Runs with untransformed data were used to test the residual error models. Plots of weighted residuals were evaluated for homoscedasticity with respect to predictions and time since dose, and the structure of the base model was expanded as necessary to best reflect the characteristic shape of the observations over time. Dose and time dependency were explored for PK model parameters. Parameter estimation was performed using Monte Carlo Importance Sampling Expectation Maximization assisted by Mode a Posteriori, with MU referencing (where THETAs that define typical values of individual parameters, and are associated with random effects, are referenced in a PHI/MU format) to improve the efficiency of computations. The impact of post-dose observations below the lower limit of quantification (BLQ) was assessed in initial models by implementing the M3 method, which maximizes the likelihood for all the data treating BLQ observations as censored. The performance of the final PopPK model was evaluated using a confidence interval prediction-corrected visual predictive check (CI-pcVPC) method. In addition, the percentage of observations outside the overall 5th and 95th percentiles of the predicted data was calculated.
Strong CYP3A4 inhibitors and inducers, as well as weight, were included in the base model.
Continuous covariates were obtained from observations on the first day of dosing, or at screening if this value was not available. […] Categorical covariates were tested and incorporated in the model as a series of index variables taking on values of zero or one.
The full model with backwards deletion approach was used for covariate modeling, with all covariate parameter relationships of interest entered into the model simultaneously. Highly correlated covariates were tested one at a time to avoid confounding in the estimation of covariate effects. A backwards deletion was carried out at the p = 0.001 significance level. The order of removal was based on the relative standard error and 95% confidence interval (CI) of the parameter estimate.

[6] = reference: 70-kg individual without CMV, 800 mg

## CC(C)Nc1nc2cc(Cl)c(Cl)cc2n1[C@H]1O[C@@H](CO)[C@H](O)[C@@H]1O [maribavir]
[1]
  Share of CYP-mediated metabolism by CYP1A2: 15–30%
[2]; human
  Relationship between probability of TE SAE and maribavir AUCday, AUCss, Cmax.ss, and Cavg: Statistically significant positive relationships
[2]
  Relationship between probability of fatigue and maribavir exposure PK metrics: Statistically significant positive relationships
  Relationship between probability of taste disturbance and Cavg of maribavir: statistically significant negative relationship
CMV
  Proportion of patients achieving key secondary endpoint (CMV viremia clearance and symptom control at end of week 8, maintained through week 16): 18.7%
CMV; transplant recipients with refractory CMV
  Proportion of patients achieving primary endpoint (confirmed CMV viremia clearance at week 8): 55.7%
[3]
  Increase in maribavir clearance: 2.5 fold
  Reduction in maribavir AUC: 60%
  Reduction in maribavir half-life: 30%
[4]; 400 mg BID, transplant recipients with CMV infection
  Time to steady-state exposure: ≤ 2 days
[4]
  PK in patients with mild or moderate hepatic impairment: unaffected
  Renal excretion as share of total clearance of unchanged drug: < 2%
  Systemic exposure in healthy Japanese individuals compared with White individuals: higher
[4]; healthy volunteers
  Mean half-life: 3.0 to 4.8 h
[4]; oral administration
  Median time to maximum plasma concentration (Tmax): 1 to 3 h
[4]; single doses of up to 1600 mg and multiple doses up to 2400 mg per day
  Dose proportionality of PK: dose-proportional
[4]; transplant recipients
  Mean half-life: 4.3 h
[5]; final PopPK model
  CL/F higher in the presence of strong CYP3A4 inducers: 2.24 fold
  CL/F lower in the presence of strong CYP3A4 inhibitors: 30%
  CL/F ~ CYP3A strong inducers, covariate estimate: 2.24
  CL/F ~ CYP3A strong inhibitors, covariate estimate: 0.700
  CL/F ~ transplant patients with CMV, covariate estimate: 0.756
[5]; human, in vivo
  CL/F lower for transplant recipients with CMV infection than for all other individuals: 24%
[5]; [6]
  Ka (first-order absorption), PopPK estimate: 0.336 h^–1
  Lag-time, PopPK estimate: 0.271 h
  Q/F (inter-compartment clearance), PopPK estimate: 0.908 L/h
  Vc/F (apparent volume of central compartment), PopPK estimate: 18.6 L
  Vp/F (apparent volume of peripheral compartment), PopPK estimate: 8.66 L
[5]; reference: 70-kg individual without CMV, 800 mg maribavir, no CYP3A strong inhibitors or inducers
  CL/F (apparent total clearance), PopPK estimate: 3.77 L/h
